For data set [1], the system named is Canine Bronchial Epithelial Cells. As to the kind of experiment: Durability of retention of airway surface liquid. The data set is classed as cell-based.
Data set [2] can be described thus: Solubility and accelerated stability in citrate buffer. To be noted: pH 4.2 citrate buffer with 2.8% NaCl. The data set is classed as physicochemical. The protocol: • 1. 200 μL of 70% ACN (70% ACN, 30% H2O) was added into sample tubes which have threads in them. • 2. Tubes from Step 1 were vortexed for 30 seconds and sonicated for 1 minute to fully immerse the threads. • 3. The sample solutions were incubated for 4 hours at room temperature. • 4. Samples were vortexed again for 30 seconds. • 5. 75 μL, of the each sample solution (from step 4) was removed into 96-well UPLC plate with an additional 75 μL of mobile phase A (5 mM ammonium formate, 0.1% formic acid in H2O) added into each sample well. • 6. Analytical standards (10 mM, 1 mM, 100 µM, 10 µM, 1 µM, 100 nM, Buffer) were prepared identically to the thread solutions. • 7. Drug concentrations from all samples were analyzed by UPLC. Solubility and Stability Testing for Compound 15 (Formula I, aka I, aka P-1046, aka 1046): Procedure for Solubility and Stability Evaluation: • 1. Prepare 2.8% NaCl and 25 mM citrate buffer, pH of the solution 4.2. The osmolality of the solution is approximately 940 mOsM. • 2. Add appropriate amount of buffer solution to a test compound to make approximate concentration of 10 mg/mL. • 3. Vortex the solution for 15 seconds, sonicate for 30 seconds, again vortex for 60 seconds and visually observe the solution. • 4. Calculate final concentration of the solution by a spectrophotometer. • Remove a portion of solution and dilute it to 1:10 ratio. […]

A further data set relates to ExLac Rats. Description: Phenol red thread (PRT) measurement of tear output in ExLac rats. The data set is classed as in vivo, Sprague Dawley. On the procedure:
Procedures for Phenol Red Thread (PRT) Measurement of Tear Output:
Animal Species/Strain: Rats, Sprague Dawley (SD); Lacrimal gland surgically removed (ExLac).
Animal Number/Sex: 3-4 females/group
Test Article Formulation: All stock solutions for each dosing arm were prepared no more than 48 hours prior to the start of the study. The concentration of ENaC blockers in all test article solutions were confirmed by spectrophotometry.
Test Article Administration: Both the ipsilateral and contralateral eyes were dosed with 5 […]1 of test article solution.
Phenol Red Thread (PRT) Test: Tear production was measured using the ZoneQuick cotton thread with impregnated phenol red dye. The folded end of the thread was held in the lateral-ventral conjunctival cul-de-sac for 10 seconds. The length of tear wicking onto the thread was determined by measuring the length of the thread that changes color from yellow to red. Use of a stereomicroscope was assist in the accurate measurement (recorded in millimeters) of the wicking/color change.

For the molecule `CN(C)C(=O)[C@H](CCCCNC(=N)N)NC(=O)[C@H](CCc1ccc(CCCCNC(=N)NC(=O)c2nc(Cl)c(N)nc2N)cc1)N(C)C` [Compound I, 3,5-diamino-6-chloro-N-(N-(4-(4-((S)-3-(dimethylamino)-4-((S)-1-(dimethylamino)-6-guanidino-1-oxohexan-2-ylamino)-4-oxobutyl)phenyl)butyl)carbamimidoyl)pyrazine-2-carboxamide], the “Durability of Retention of Airway Surface Liquid, fluid retained” value in data set [1] (8 hours after drug delivery, n=3) is 94±5%; in data set [1] (24 hours after drug delivery, n=2), 56±6%. Moreover, the “Stability (HPLC), degradation” value in data set [2] (10 days at 50° C.) is “No degradation”. In data set [2] (aqueous buffer, thermodynamic from solid, highest concentration tested), this molecule registered a solubility of no less than 8800 µg/mL. For the same molecule, in the data set with ExLac Rats (2 hours post-dose, all dose groups except 0.1 mM), the “Tear output (PRT) in ExLac rats, duration of effect” value is listed as “still observed”. Also, in the data set with ExLac Rats (all concentrations, 15 minutes post-dose, n=4), the “Tear output (PRT) in ExLac rats” value was “increases tear output in ExLac rats 15 minutes post-dose at or slightly below tear output values observed for normal rats”. Besides, the “Tear output, baseline corrected data, significance vs vehicle” value in the data set on ExLac Rats (single 10 mM dose, baseline corrected, p <0.03) was “statistically significant at all post-dose time points”. The “Tear volume relative to vehicle controls” value with ExLac Rats (single 10 mM dose, n=3) is “increased tear volume relative to vehicle controls”. For the same molecule, the “Tear output, raw data, significance vs vehicle” value in the data set with ExLac Rats (single 10 mM dose, raw PRT values) is recorded as “not significant beyond 60 minutes”.

In general, solubility refers to the concentration that dissolves in the medium under given conditions. Higher therefore signals much dissolved substance.

The values above are taken from US10159672B2 (PARION SCIENCES, INC., priority 2011, dated 2018).
